This note sets out measurements from ChEMBL document CHEMBL5214974, “The design of protozoan phosphoribosyltransferase inhibitors containing non-charged phosphate mimic residues” (Bioorg Med Chem, 2022).

A short description of assay [1]: Inhibition of N-terminal His6-tagged Trypanosoma cruzi HGPRT isoform C expressed in Escherichia coli C43(DE3) cells assessed as inhibition of IMP formation using hypoxanthine as substrate by spectrophotometric assay.
A short description of assay [2]: Inhibition of N-terminal His6-tagged HGXPRT expressed in Escherichia coli BL21 cells assessed as reduction in NADH absorbance using hypoxanthine as substrate by IMPDH coupled assay. Also on record: species or system Plasmodium falciparum.
Assay [3] is described as follows: Inhibition of N-terminal His6-tagged Trypanosoma cruzi HGXPRT isoform B expressed in Escherichia coli BL21(DE3) cells assessed as inhibition of IMP formation using hypoxanthine as substrate by spectrophotometric assay.

The term pKi denotes the Ki on a negative log10 scale, so that one unit is a factor of ten.

pKi: −log10 of the molar value. Bounds are passed on as bounds.

For `O=c1[nH]cnc2c(CN[C@H](CO)CCP(=O)(O)O)c[nH]c12`, the results for the pKi in assay [1] and in assay [2] were 7.96 and 9.19, respectively.

On to `O=C1CN(CC[C@@H](CO)NCc2c[nH]c3c(O)nc(O)nc23)S(=O)(=O)N1`, for which the results for the pKi in assay [1], in assay [3] and in assay [2] were below 3.89, below 3.85 and below 4.70, respectively.

As for `O=P(O)(O)CC[C@@H](CO)NCc1c[nH]c2c(O)nc(O)nc12`, the figures for the negative-log Ki (pKi) in assay [1] and in assay [2] were 4.74 and 5.10, respectively.

As for `Nc1nc(O)c2[nH]cc(CN[C@H](CO)CCP(=O)(O)O)c2n1`, the pKi was 7.52 in assay [1] and 9.30 in assay [2].

For `NS(=O)(=O)NC[C@@H](CO)NCc1c[nH]c2c(O)ncnc12`, the pKi in assay [1] was below 3.89; in assay [3], below 3.85; in assay [2], below 4.70.

As to `O=C1N[C@@H]([C@@H](CO)NCc2c[nH]c3c(O)ncnc23)CO1`, the pKi in assay [1] was below 3.89; in assay [3], below 3.85; in assay [2], below 4.70.

For the molecule `O=c1cc([C@@H](CO)NCc2c[nH]c3c(O)ncnc23)o[nH]1`, the values for the negative logarithm of the Ki (pKi) in assay [1], in assay [3] and in assay [2] were below 3.89, below 3.85 and below 4.70, respectively.

For the molecule `O=c1c(O)c(NCC[C@@H](CO)NCc2c[nH]c3c(O)ncnc23)c1=O`, the pKi is below 3.89 in assay [1], below 3.85 in assay [3] and below 4.70 in assay [2].

Take `O=c1c(O)c(NC[C@@H](CO)NCc2c[nH]c3c(O)ncnc23)c1=O`: the results for the pKi in assay [1], in assay [3] and in assay [2] were below 3.89, below 3.85 and below 4.70, respectively.

Take `NS(=O)(=O)NC[C@@H](CO)NCc1c[nH]c2c(O)nc(O)nc12`: the values for the pKi in assay [1], in assay [3] and in assay [2] were below 3.89, below 3.85 and below 4.70, respectively.

`O=C1CN(C[C@@H](CO)NCc2c[nH]c3c(O)nc(O)nc23)S(=O)(=O)N1`: the pKi in assay [1] is below 3.89; in assay [3] it was below 3.85; in assay [2], below 4.70.

On to `O=C1CN(CC[C@@H](CO)NCc2c[nH]c3c(O)ncnc23)S(=O)(=O)N1`, for which the pKi in assay [1] was below 3.89; in assay [3], below 3.85; in assay [2], below 4.70.

As for `O=C1CN(C[C@@H](CO)NCc2c[nH]c3c(O)ncnc23)S(=O)(=O)N1`, the results for the negative logarithm of the Ki (pKi) in assay [1], in assay [3] and in assay [2] were below 3.89, below 3.85 and below 4.70, respectively.
